The results in this text go back to patent publication US9115065B2 (priority 2004, dated 2015).

The subject of one assay is Tacaribe. The assay can be described thus: microbe, parasite or virus in culture. Type of assay: cell-based. Particulars: Mammarenavirus tacaribeense, HEK-293T, read-out: Antiviral activity vs. pseudotyped viruses: Tacaribe.
The test system of the next assay is Guanarito. The assay can be described thus: microbe, parasite or virus in culture. Type of assay: cell-based. The conditions noted are these: Mammarenavirus guanaritoense, HEK-293T, read-out: Antiviral activity vs. pseudotyped viruses: Guanarito.
The next assay deals with Machupo. The assay can be described thus: microbe, parasite or virus in culture. Type of assay: cell-based. Particulars: Mammarenavirus machupoense, HEK-293T, read-out: Antiviral activity vs. pseudotyped viruses: Machupo.
The subject of a further assay is VSV. The assay can be described thus: microbe, parasite or virus in culture. Type of assay: cell-based. The conditions noted are these: Vesicular stomatitis virus, HEK-293T, read-out: VSV (μM) (negative control).
Another assay deals with Tacaribe virus. The assay can be described thus: microbe, parasite or virus in culture. Type of assay: cell-based. Particulars: Mammarenavirus tacaribeense, Vero.
A further assay relates to Junín. The assay can be described thus: microbe, parasite or virus in culture. Type of assay: cell-based, Junin virus. Particulars: Mammarenavirus juninense, HEK-293T, read-out: Antiviral activity vs. pseudotyped viruses: Junín.
Another assay concerns the target JUNV GPC (Junin mammarenavirus, UniProt P26313). The assay is described as follows: cell-based. More on the design: species or system Junin virus.
In assay [1] the test system is icd-GPC. Type of assay: binding, Junin virus.
Assay [2] deals with icd-GPC. Type of assay: binding, Junin virus. This is another data set of the same source.

Where two headings read alike, the source gives them in different places.

Chain of JUNV GPC (P26313 2-58 limits assumed): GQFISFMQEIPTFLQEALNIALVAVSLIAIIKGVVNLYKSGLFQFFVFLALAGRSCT
Chain of JUNV GPC (P26313 59-251 partner limits assumed): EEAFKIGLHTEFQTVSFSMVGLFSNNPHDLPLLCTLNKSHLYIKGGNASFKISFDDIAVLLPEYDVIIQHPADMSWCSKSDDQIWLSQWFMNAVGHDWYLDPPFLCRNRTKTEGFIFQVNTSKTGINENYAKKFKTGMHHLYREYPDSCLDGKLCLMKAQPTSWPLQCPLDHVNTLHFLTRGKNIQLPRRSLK
Chain of JUNV GPC (P26313 252-485 limits assumed): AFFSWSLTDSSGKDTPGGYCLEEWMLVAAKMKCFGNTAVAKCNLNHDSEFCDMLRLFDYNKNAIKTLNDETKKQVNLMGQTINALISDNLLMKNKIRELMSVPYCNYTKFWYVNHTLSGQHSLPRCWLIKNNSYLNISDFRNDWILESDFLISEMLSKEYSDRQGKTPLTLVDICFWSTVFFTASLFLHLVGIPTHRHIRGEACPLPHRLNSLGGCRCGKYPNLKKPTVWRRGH

Consider `CCC(NC(=O)NNS(=O)(=O)c1c(C)cc(C)cc1C)(C(F)(F)F)C(F)(F)F` [Compound 99, 1-[1,1-bis(trifluoromethyl)propyl]-3-[(2,4,6-trimethylphenyl)sulfonylamino] urea], for which the EC50 in the assay with Tacaribe is < 1000 nM; in the assay on Guanarito, < 1000 nM; with Machupo it was < 1000 nM; with VSV, > 30 µM.
For `CCC(NC(=O)NNS(=O)(=O)c1ccc(C(C)(C)C)cc1)(C(F)(F)F)C(F)(F)F` [Compound 100, 1-[1,1-bis(trifluoromethyl)propyl]-3-[(4-tert-butylphenyl)sulfonylamino]urea], the EC50 with Tacaribe is < 1000 nM; with Guanarito it was < 1000 nM; in the assay on Machupo, < 1000 nM; with VSV, 19.7 µM.
For `CCC(NC(=O)NNS(=O)(=O)c1cc(OC)ccc1OC)(C(F)(F)F)C(F)(F)F` [Compound 101, 1-[1,1-bis(trifluoromethyl)propyl]-3-[(2,5-dimethoxyphenyl)sulfonylamino] urea], the EC50 in the assay with Tacaribe was < 1000 nM; in the assay on Guanarito, < 1000 nM; with Machupo, < 1000 nM; in the assay on VSV, > 30 µM.
Consider `CCC(NC(=O)NNS(=O)(=O)c1ccc2ccccc2c1)(C(F)(F)F)C(F)(F)F` [Compound 102, 1-[1,1-bis(trifluoromethyl)propyl]-3-(2-naphthylsulfonylamino)urea], for which the EC50 was < 1000 nM in the assay with Tacaribe, < 1000 nM in the assay on Guanarito, < 1000 nM in the assay with Machupo and > 20 µM with VSV.
On to `CCC(NC(=O)NNS(=O)(=O)c1ccc(C(C)C)cc1)(C(F)(F)F)C(F)(F)F` [Compound 103, 1-[1,1-bis(trifluoromethyl)propyl]-3-[(4-isopropylphenyl)sulfonylamino] urea], for which the EC50 was < 1000 nM in the assay with Tacaribe, < 1000 nM with Guanarito, < 1000 nM in the assay with Machupo and > 20 µM in the assay on VSV.
For the compound `CCC(NC(=O)NNS(=O)(=O)c1cc(Cl)ccc1OC)(C(F)(F)F)C(F)(F)F` [Compound 104, 1-[1,1-bis(trifluoromethyl)propyl]-3-[(5-chloro-2-methoxy-phenyl)sulfonylamino]urea], the EC50 in the assay with Tacaribe is < 1000 nM; in the assay with Guanarito, < 1000 nM; in the assay on Machupo, < 1000 nM; with VSV, > 30 µM.
`CCC(NC(=O)NNS(=O)(=O)c1ccccc1-c1ccccc1)(C(F)(F)F)C(F)(F)F` [Compound 105, 1-[1,1-bis(trifluoromethyl)propyl]-3-[(2-phenylphenyl)sulfonylamino] urea]: the EC50 is < 1000 nM in the assay with Tacaribe, < 1000 nM in the assay with Guanarito, < 1000 nM with Machupo and > 30 µM with VSV.
Consider `CCC(NC(=O)NNS(=O)(=O)c1ccc(Cl)c(Cl)c1)(C(F)(F)F)C(F)(F)F` [Compound 106, 1-[1,1-bis(trifluoromethyl)propyl]-3-[(3,4-dichlorophenyl)sulfonylamino]urea], for which the EC50 in the assay with Tacaribe is < 1000 nM; in the assay with Guanarito, < 1000 nM; in the assay with Machupo it was < 1000 nM; in the assay on VSV, > 30 µM.
For the compound `CCC(NC(=O)NNS(=O)(=O)c1ccc(Br)cc1)(C(F)(F)F)C(F)(F)F` [Compound 107, 1-[1,1-bis(trifluoromethyl)propyl]-3-[(4-bromophenyl)sulfonylamino] urea], the EC50 is < 1000 nM in the assay with Tacaribe, < 1000 nM with Guanarito, < 1000 nM with Machupo and > 30 µM in the assay on VSV.
On to `CCC(NC(=O)NNS(=O)(=O)c1ccc(OC(F)F)cc1)(C(F)(F)F)C(F)(F)F` [Compound 108, 1-[1,1-bis(trifluoromethyl)propyl]-3-[[4-(difluoromethoxy)phenyl]sulfonyl-amino]urea], for which the EC50 with Tacaribe virus (read-out: Tacaribe (result of cytopathic effect assay)) was < 1000 nM.
Consider `CCC(NC(=O)NNS(=O)(=O)c1cc(C)cc(C)c1)(C(F)(F)F)C(F)(F)F` [Compound 109, 1-[1,1-bis(trifluoromethyl)propyl]-3-[(3,5-dimethylphenyl)sulfonylamino] urea], for which the EC50 in the assay with Tacaribe was < 1000 nM; in the assay with Guanarito it was < 10000 nM; in the assay on Machupo, < 10000 nM; with VSV, > 30 µM.
Turning to `CCC(NC(=O)NNS(=O)(=O)c1cccc2c(N(C)C)cccc12)(C(F)(F)F)C(F)(F)F` [Compound 110, 1-[1,1-bis(trifluoromethyl)propyl]-3-[[5-(dimethylamino)-1-naphthyl]sulfonylamino]urea], the EC50 was < 1000 nM in the assay on Tacaribe; < 10000 nM with Guanarito; < 1000 nM in the assay on Machupo; < 1000 nM in the assay on Junín; > 30 µM in the assay with VSV; 600 nM at JUNV GPC. In addition, in the assay on icd-GPC [1], the “dansyl fluorescence at 525 nm on binding to solubilized icd-GPC” value was “increase in a time-dependent manner”.
`CCC(NC(=O)NNS(=O)(=O)c1cccc2ccccc12)(C(F)(F)F)C(F)(F)F` [Compound 111, 1-[1,1-bis(trifluoromethyl)propyl]-3-(1-naphthylsulfonylamino)urea]: the EC50 in the assay on Tacaribe was < 1000 nM; with Guanarito, < 1000 nM; with Machupo, < 1000 nM; with VSV, > 30 µM.
Take `CCC(NC(=O)NNS(=O)(=O)c1ccc2c(c1)OCCN2C)(C(F)(F)F)C(F)(F)F` [Compound 112, 1-[1,1-bis(trifluoromethyl)propyl]-3-[(4-methyl-2,3-dihydro-1,4-benzoxazin-7-yl)sulfonylamino] urea]: the EC50 is < 1000 nM with Tacaribe, < 10000 nM with Guanarito, < 1000 nM in the assay with Machupo and > 30 µM with VSV.
Turning to `CCC(NC(=O)NNS(=O)(=O)c1cc(OCC(F)(F)F)ccc1OCC(F)(F)F)(C(F)(F)F)C(F)(F)F` [Compound 113, 1-[[2,5-bis(2,2,2-trifluoroethoxy)phenyl]sulfonyl-amino]-3-[1,1-bis(trifluoromethyl)propyl]urea], the EC50 with Tacaribe is < 1000 nM; in the assay with Guanarito it was < 1000 nM; in the assay with Machupo, < 1000 nM; with VSV it was 21 µM.
`CCC(NC(=O)NNS(=O)(=O)c1ccc(-c2csnn2)cc1)(C(F)(F)F)C(F)(F)F` [Compound 114, 1-[1,1-bis(trifluoromethyl)propyl]-3-[[4-(thiadiazol-4-yl)phenyl]sulfonylamino]urea]: the EC50 was < 1000 nM in the assay on Tacaribe; < 1000 nM in the assay on Guanarito; < 1000 nM in the assay on Machupo; < 1000 nM with Junín; > 30 µM with VSV.
Turning to `CCC(NC(=O)NNS(=O)(=O)c1cc(Br)ccc1OC)(C(F)(F)F)C(F)(F)F` [Compound 115, 1-[1,1-bis(trifluoromethyl)propyl]-3-[(5-bromo-2-methoxy-phenyl)sulfonylamino]urea], the EC50 in the assay with Tacaribe was < 1000 nM; in the assay with Guanarito, < 1000 nM; in the assay with Machupo it was < 1000 nM; with VSV, > 30 µM.
As for `CCC(NC(=O)NNS(=O)(=O)c1ccc(-c2ccccc2)cc1)(C(F)(F)F)C(F)(F)F` [Compound 116, 1-[1,1-bis(trifluoromethyl)propyl]-3-[(4-phenylphenyl)sulfonylamino] urea], the EC50 was < 1000 nM in the assay on Tacaribe, < 10000 nM with Guanarito, < 1000 nM in the assay on Machupo and > 20 µM with VSV.
Take `CC(NC(=O)Nc1ccccc1C(F)(F)F)(C(F)(F)F)C(F)(F)F` [Example 97, 1-(2-Trifluoromethylphenyl)-3-(2,2,2-trifluoro-1-methyl-1-trifluoromethylethyl)-urea]: in the assay with Tacaribe virus (read-out: Tacaribe EC50), the EC50 is > 5000 nM.
For `COc1ccc(-n2cnc3cc(NCc4ccc(C(C)C)cc4)ccc32)cc1` [ST-193, reference compound], the “displacement of bound ST-375 from icd-GPC” value in the assay on icd-GPC [2] is “displaced from icd-GPC in a time- and concentration-dependent manner”.
